Data taken from patent US9288983B2, “Compositions of dibromomalonamide and their use as biocides” (Dow Global Technologies LLC, priority 2009, dated 2016).
Where two headings read alike, the source gives them in different places.

Key:
[1] = tested on: mixture of Pseudomonas aeruginosa, Klebsiella pneumoniae, Staphylococcus aureus, and Bacillus subtilis; assay: Growth inhibition assay (microtiter plate, OD580); type: cell-based; conditions: for I90 value: 24 hr; for % Inhibition of growth by single active / inhibition at 0.39 µg/mL / inhibition at 0.78 µg/mL / inhibition at 1.56 µg/mL / inhibition at 3.13 µg/mL / inhibition at 6.25 µg/mL / inhibition at 12.5 µg/mL / inhibition at 25 µg/mL: 24 h; for inhibition at 0.39 µg/mL / inhibition at 0.78 µg/mL / inhibition at 1.56 µg/mL / inhibition at 3.13 µg/mL / inhibition at 6.25 µg/mL / inhibition at 12.5 µg/mL / inhibition at 25 µg/mL: read-out: % Inhibition of growth by single active
Excerpt: Growth Inhibition Assay. […] Regardless of the mechanism of action, the impact of a biocide (or combination of biocides) can be measured over time on the basis of an increase in the size of the community.
The assay measures the efficacy of one or more biocides at preventing growth of a consortium of bacteria in a dilute mineral salts medium. The medium contains (in mg/l) the following components: FeCl3.6H2O (1); CaCl2.2H2O (10); MgSO4.7H2O (22.5); (NH4)2SO4 (40); KH2PO4 (10); K2HPO4 (25.5); Yeast Extract (10); and glucose (100). After all components are added to deionized water, the pH of the medium is adjusted to 7.5. Following filter sterilization, aliquots are dispensed in 100 ul quantities to sterile microtiter plate wells. Dilutions of DBMAL and/or “Biocide B” are then added to the microtiter plate. After preparing the combinations of actives as illustrated below, each well is inoculated with 100 μl of a cell suspension containing ca. […] cells per milliliter of a mixture of Pseudomonas aeruginosa, Klebsiella pneumoniae, Staphylococcus aureus, and Bacillus subtilis. The final total volume of medium in each well is 300 μl. Once prepared as described herein, the concentration of each active ranges from 25 ppm to 0.19 ppm as illustrated in Table 1. The resulting matrix allows testing of eight concentrations of each active and 64 combinations of actives in the ratios (of actives).
Controls (not shown) contain the medium with no biocide added. After preparing the combinations of actives as illustrated above, each well is inoculated with 100 μl of a cell suspension containing ca. […] cells per milliliter of a mixture of Pseudomonas aeruginosa, Klebsiella pneumoniae, Staphylococcus aureus, and Bacillus subtilis. The final total volume of medium in each well is 300 μl.
Immediately after the microtiter plates are prepared, the optical density (OD) readings for each well is measured at 580 nm and the plates are then incubated at 37° C. for 24 hr. After the incubation period, the plates are gently agitated before OD580 values are collected. The OD580 values at T0 are subtracted from T24 values to determine the total amount of growth (or lack thereof) that occurs. These values are used to calculate the percent inhibition of growth caused by the presence of each biocide and each of the 64 combinations.
where • CDBMAL: Concentration of DBMAL required to inhibit ˜90% of bacterial growth when used alone • CB: Concentration of biocide (B) required to inhibit ˜90% of bacterial growth when used alone. • MDBMAL: Concentration of DBMAL required to inhibit ˜90% of bacterial growth when used in combination with biocide (B). • MB: Concentration of biocide (B) required to inhibit ˜90% of bacterial growth when used in combination with DBMAL
(§1) The SI values are interpreted as follows: • SI<1: Synergistic combination • SI=1: Additive combination • SI>1: Antagonistic combination
(§2) In the Examples below, the amounts of biocides in the solution are measured in mg per liter of solution (mg/l). Since solution densities are approximately 1.0, the mg/l measurement corresponds to weight ppm. Both units may therefore be used interchangeably in the Examples.

[2] = tested on: mixture of Pseudomonas aeruginosa ATCC 10045 and Staphylococcus aureus ATCC 6538; assay: Kill assay (minimum biocide concentration, MBC); type: cell-based; conditions: single active, 37° C., 2 hours
Description: The procedure is as follows.
as §1, §2

Compound	I90 value ([1]; Example 2, single active)	MBC (minimum biocide concentration needed to completely kill the bacterial cells), biocide alone [2]	inhibition at 0.39 µg/mL ([1]; Table 3, 0.39 mg/l alone)	inhibition at 0.78 µg/mL ([1]; Table 3, 0.78 mg/l alone)	inhibition at 1.56 µg/mL ([1]; Table 3, 1.56 mg/l alone)	inhibition at 3.13 µg/mL ([1]; Table 3, 3.13 mg/l alone)	inhibition at 12.5 µg/mL ([1]; Table 3, 12.5 mg/l alone)	inhibition at 0.78 µg/mL ([1]; Table 9, 0.78 mg/l alone)	inhibition at 1.56 µg/mL ([1]; Table 9, 1.56 mg/l alone)	inhibition at 3.13 µg/mL ([1]; Table 9, 3.13 mg/l alone)	inhibition at 6.25 µg/mL ([1]; Table 9, 6.25 mg/l alone)	I90 value ([1]; Example 4, single active)	I90 value ([1]; Example 3, single active)	further results
O=[N+]([O-])C(Br)=Cc1ccccc1 [BNS, bromonitrostyrene]	6.25 mg/L													% Inhibition of growth by single active ([1]; Table 5, 0.78 mg/l alone): 19%; % Inhibition of growth by single active ([1]; Table 5, 1.56 mg/l alone): 42%; % Inhibition of growth by single active ([1]; Table 5, 3.13 mg/l alone): 75%
O=[N+]([O-])C(Br)(CO)CO [Bronopol, 2-bromo-2-nitropropane-1,3-diol]		>150 µg/mL	0%	0%	0%	67%	99%							inhibition at 6.25 µg/mL ([1]; Table 3, 6.25 mg/l alone): 96%; inhibition at 25 µg/mL ([1]; Table 3, 25.0 mg/l alone): 97%
N#CCCC(Br)(C#N)CBr (stereo not drawn) [DBDCB, 1,2-Dibromo-2,4-dicyanobutane]								0%	17%	43%	100%	6.25 mg/L		inhibition at 0.39 µg/mL ([1]; Table 9, 0.39 mg/l alone): 0%; inhibition at 12.5 µg/mL ([1]; Table 9, 12.5 mg/l alone): 99%; inhibition at 25 µg/mL ([1]; Table 9, 25.0 mg/l alone): 97%
NC(=O)C(Br)(Br)C(N)=O [DBMAL, 2,2-dibromomalonamide]	12.5 mg/L	66.7 µg/mL	8%	12%	13%	17%	97%	11%	14%	20%	100%	6.25 mg/L	12.5 mg/L	inhibition at 0.39 µg/mL ([1]; Table 5, 0.39 mg/l alone): 1%; inhibition at 3.13 µg/mL ([1]; Table 5, 3.13 mg/l alone): 34%; inhibition at 6.25 µg/mL ([1]; Table 5, 6.25 mg/l alone): 65%; inhibition at 25 µg/mL ([1]; Table 5, 25.0 mg/l alone): 98%; inhibition at 0.39 µg/mL ([1]; Table 7, 0.39 mg/l alone): 23%; inhibition at 0.78 µg/mL ([1]; Table 7, 0.78 mg/l alone): 58%; inhibition at 1.56 µg/mL ([1]; Table 7, 1.56 mg/l alone): 52%; inhibition at 3.13 µg/mL ([1]; Table 7, 3.13 mg/l alone): 61%; inhibition at 6.25 µg/mL ([1]; Table 7, 6.25 mg/l alone): 41%; inhibition at 25 µg/mL ([1]; Table 7, 25.0 mg/l alone): 98%
N#CSCSC#N [MBT, methylene bis(thiocyanate)]													0.78 mg/L	% Inhibition of growth by single active ([1]; Table 7, 0.39 mg/l alone): 24%
